Results taken from US20080242594A1, “Methods for Promoting Stem Cell Proliferation and Survival” (priority 2005, published 2008).

What was measured:
[1] = system: p38, SMAD1/5/8, MSK-1, STAT3 phosphorylation in hES cells; test: Signalling immunoblots in hES cells
Procedure: Immunoblotting: Immunoblotting was performed as previously described (Panchision et al., Genes Dev 15:2094-110, 2001). The following antibodies were used in the experiments described below: pSer473-Akt (92715), pSer308-Akt (9275), pSer2448-mTOR (29715), pThr180/Tyr182-p38 (9211), pSMAD1/5/8 (9511) from Cell Signaling; STAT3 (482), pSer727-STAT3 (8001-R), pTyr705-STAT3 (7993) from Santa Cruz; Sonic Hedgehog (R&D, AF464), nucleostemin (McKay Lab), Hes3 (Chemicon, AB5706), α-tubulin (Sigma, T-6074).
To determine whether in the hES system JAK inhibition reduced p38 activity, cells were treated in the absence of MEF with JAK inhibitor for different times and assayed for p38 phosphorylation.

mES (D3) cells = test: mES cell plating efficiency, Oct4 and STAT3 phosphorylation in the presence of LIF; assay type: cell-based, mouse
From the text: FIGS. 10a-10c are a set of images showing JAK inhibition reduces the phosphorylation of STAT3 on Ser727 in mES cell cultures. […] Very low levels of phosphorylated p38 were detectable under all conditions. […] Self-renewal of mES cells correlated with Ser727 phosphorylation.
mES (D3) cells were obtained from ATCC and were maintained in feeder-free cultures on gelatin-coated plates supplemented with 1400 units/ml LIF.
There is great interest in conditions that support the growth of mouse and human ES cells. In contrast to CNS SC (FIG. 2, FIG. 3) and hES SC (se below), the growth of undifferentiated mouse ES cells depends on the stimulation of the JAK/STAT pathway and STAT3 phosphorylation on Tyr705 has been specifically shown to be essential for self-renewal of mouse ES cells (Niwa et al., Genes Dev 12:2048-60, 1998; Matsuda et al., Embo J 18:4261-9, 1999). Ligands that stimulate the JAK/STAT pathway cause human ES cells to differentiate (Daheron et al., Stem Cells 22:770-8, 2004; Humphrey et al., Stem Cells 22:522-30, 2004). It was determined if the Notch/sSTAT survival pathway is present in mouse or human ES cells.

HSF6 hES cells = test: hES single cell plating efficiency, HSF-6; assay type: cell-based, human; conditions: one week treatment
From the text: The human ES cell lines HSF-6 (University of California, San Francisco; NIH # UC06, Passage 38-120) and H1 and H9 (WiCell Research Institute, NIH # WA01 and […]) were maintained on mouse embryonic fibroblasts (MEF) according to the suppliers' protocols. Immunocytochemistry and FACS analysis for the expression of Oct4 and SSEA4 and SKY karyotyping established that the starting cells are undifferentiated and have a normal set of chromosomes. For single cell survival experiments, hES colonies were harvested after treatment with 1.5 mg/ml collagenase type IV (Invitrogen), separated from the MEF feeder cells by repeated washing by gravity, gently triturated to break up colonies into small aggregates, further dissociated into a single cell solution by trypsination (0.05% trypsin/0.04% EDTA) and transferred on MEF feeder cells at a density of 10000 cells/ml. Oct-4 positive colonies were counted six days after plating. […]
The pro-survival effects of activation of Notch and inhibition of JAK was tested on HSF-6 (NIH code UC06, http://escell.ucsf.edu), H1 (NIH code WA01, www.wicell.org) and H9 (NIH code WA09, www.wicell.org) hES cells. Singly dissociated hES cells were plated on mouse embryo fibroblasts (MEFs), treated daily for one week and colony numbers counted. […]

[2] = system: E13.5 cortical embryonic mouse CNS stem cells; test: CNS stem cell plating efficiency / colony formation / survival; assay type: cell-based; conditions: 5 days, versus FGF2 control; CNTF low 0.01, 0.1 ng/ml or high 20 ng/ml with JAK inhibitor
Procedure: Cell culture: E13.5 cortical embryonic mouse and adult rat subventricular zone CNS stem cells were grown as previously described (Johe et al., Genes Dev 10:3129-40, 1996; Rajan et al., J Neurosci 18:3620-9, 1998). Cells were expanded in serum-free DMEM/F12 medium with N2 supplement with FGF2 (20 ng/ml) for 5 days and were re-plated at 1000-10,000 cells per cm^2. FGF2 was included throughout our experiments, unless otherwise stated.
To explore these paradoxical observations, CNS stem cell cultures from mid-gestation (embryonic day 13.5) mouse dorsal telencephalon were treated with soluble Notch ligands. […] Following initial passaging, the cells were plated at a density of 1000 cells/cm^2, cultured for 5 days in the presence of FGF2, and colony numbers, sizes, and BrdU incorporation (after a 4 hour BrdU pulse) were enumerated. Notch activation by Jagged-1 or Delta-4 (200 ng/ml) increased the number of colonies generated in vitro by over 3-fold (FIG. 1a). […] The effects of Notch activation were most dramatic when treatments were initiated at the start of the culture.
Insulin in the medium is also thought to promote cell survival. […] Seeding cells in the absence of insulin caused the plating efficiency measured at five days to drop to 29.9%±37.9 (FIG. 1e). Delta-4 was able to compensate for the lack of insulin in the medium, and restored plating efficiency (125%±19.4). Because Notch activation improved survival, activation of Akt, a ser/threonine kinase known to be involved in cell survival, was assayed. Notch activation rapidly (5 minutes) promoted the phosphorylation of Akt on Ser473 and […] in both the presence and absence of insulin (FIG. 1f).

Notch1 = test: Notch activation (Notch1IC / Notch ICD) immunocytochemical detection; assay type: cell-based, mouse
From the text: Antibodies were used that specifically bind: Notch1IC (Chemicon, 5352), GFP (Molecular Probes, A11122), Oct3/4 (Santa Cruz, sc-5279), SSEA1 and SSEA4 (Developmental Studies HybridomaBank), Tra-1-60 (Chemicon, MAB4360), Tra-1-81 (Chemicon, MAB4381), human nestin (Chemicon, MAB5326), Sox-1 (Gift from Dr. R Lovell-Badge), TH (Pel-Freez, P40101-0), Tuj1 (Covance, MMS-435P), rat nestin (McKay Lab), GFAP (Dako, z0334), CNPase (Chemicon, MAB326), BrdU (Accurate, H5903), DCX (Santa Cruz, sc-8066), Sox2 (R&D, MAB2018), Hu (Molecular Probes, A21271).
To assay for Notch activation, cultures were treated with the Notch ligands for 1 hour and Notch1 activation was detected by immunocytochemical staining of Notch1IC (FIG. 1b).
(§1) It was determined that insulin facilitates Notch cleavage using immunocytochemical detection.

[3] = system: rat adult subventricular zone central nervous system stem cell cultures; test: Survival of adult SVZ CNS stem cell cultures with insulin and Dll4; assay type: cell-based
Procedure: (§2) As there was a tight correlation between the Notch survival pathway and Hes3, it was investigated as to whether Hes3 is a mediator of the Notch pro-survival signalling. It was determined that both insulin and Notch activation promote the survival of foetal and adult neural stem cell cultures and their effects are additive (Tables 8-9).

[4] = system: mouse fetal central nervous system stem cell cultures; test: Survival of fetal CNS stem cell cultures with insulin and Dll4; assay type: cell-based
Procedure: as §2

IGF1/insulin receptor = IGF1/insulin receptor phosphorylation in foetal NSC cultures; assay type: cell-based, mouse
Procedure: Specifically, D114 induced the phosphorylation of IGF1/insulin receptor. Peak phosphorylation occurred at 2-5 minutes.
as §1

STAT3 = STAT3 phosphorylation (Ser727, Tyr705) immunoblot in CNS stem cells; assay type: cell-based, mouse
From the text: Ligands that activate JAK/STAT signaling promote astrocytic differentiation of CNS stem cells (Johe et al., Genes Dev 10:3129-40, 1996; Raj an et al., J Neurosci 18:3620-9, 1998; Bonni et al., Science 278:477-83, 1997; Song et al., Nat Neurosci 7:229-35, 2004; He et al., Nat Neurosci 8:616-625, 2005). When applying CNTF to CNS stem cells it was noted that low concentrations of CNTF stimulated survival but not expression of astrocyte specific genes. This is consistent with previous observations of Akt phosphorylation downstream of gp130 activation (Taga et al., Annu Rev Immunol 15:797-819, 1997). […] At high concentrations (20 ng/ml) the phosphorylation of Tyr705 can be blocked by an inhibitor of JAK while allowing a CNTF-induced increase in Ser727 phosphorylation (FIG. 2B) (Thompson et al., Bioorg Med Chem Lett 12:1219-23, 2002).
CNTF was used as a positive control; CNTF, induced the phosphorylation on both sites. With both CNTF and Notch activation, phosphorylation peaked at around 30 min. STAT3 phosphorylation on Ser727 following Notch activation was sensitive to the γ-secretase inhibitor DAPT (FIG. 2e). […] In contrast to CNTF, no Tyr705 phosphorylation was detected at any of the doses of Notch receptor ligands.
It was determined that insulin also maintains phosphorylation of serine 727 in STAT3 in foetal neural stem cell cultures.

[5] = system: adult rat subventricular zone (SVZ); test: Dividing (BrdU+) cells in SVZ after single lateral ventricle injection; assay type: in vivo; conditions: BrdU for 3 days, sacrificed on the 5th day
Procedure: In vivo, Notch and insulin also increase the number of dividing cells in the adult rat subventricular zone (SVZ) 5 days after a single injection It was determined that Notch and insulin co-operate to promote new (BrdU+) cells in vivo. Specifically, the reagents infused in the lateral ventricle of adult rats as a single injection. The rats were then given BrdU for 3 days and sacrificed on the 5th day (Table 10).

[6] = Insulin withdrawal, 2 days and then treat for 1 h

Molecule	STAT3 phosphorylation on Ser727 [1]	phosphorylation of MSK-1 kinase [1]	phosphorylation of SMAD 1/5/8 [1]	Oct4 expression (mES (D3) cells; five day treatments in the presence of LIF)	cell survival in a plating efficiency assay (mES (D3) cells; in the presence of LIF)	human ES cell survival (HSF6 hES cells)	CNS stem cell survival / plating efficiency [2]	Notch ICD (Notch1; +Ins, no withdrawal)	Notch ICD (Notch1; [6])	Cell # [3]	Cell # [4]	pIGF1 (19H7) (IGF1/insulin receptor; +Ins, no withdrawal)	pIGF1 (3021) (IGF1/insulin receptor; +Ins, no withdrawal)	pIGF1 (19H7) (IGF1/insulin receptor; [6])	pIGF1 (3021) (IGF1/insulin receptor; [6])	STAT3-S727 (STAT3; +Ins, 2 days)	STAT3-Y705 (STAT3; +Ins, 2 days)	STAT3-S727 (STAT3; −Ins, 2 days→ +Ins, 1 hour)	STAT3-Y705 (STAT3; −Ins, 2 days→ +Ins, 1 hour)	Cell # [5]
C[S+]([O-])c1ccc(-c2nc(-c3ccc(F)cc3)c(-c3ccncc3)[nH]2)cc1 (centres unmarked) [p38 inhibitor, 4-(4-Fluorophenyl)-2-(4-methylsulfinylphenyl)-5-(4-pyridyl)1H-imidazole]	stimulated STAT3 phosphorylation on Ser727	reduced the phosphorylation of MSK-1 kinase	reduced in a time-dependent manner	did not affect Oct4 expression	did not significantly alter cell survival	stimulated human ES cell survival	enhanced survival to a similar extent to the JAK inhibitor													
Ins: insulin in the culture medium or infused								High	High	Medium	Medium	High	High	High	High	High	No signal	High	No signal	Medium
